From PubChem BioAssay AID2060484 (Molecular Pharmacology Branch, DTP, NCI, 2025)
pIC50: −log10 of the molar value.

Test system: SUM149PT spheroids with HUVEC/MSC, viability
Assay: Anticancer human tumor SUM149PT cell line growth inhibition [GQUAD];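 also: spheroids exposed to drugs for seven days before readout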;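 as to viability, T/C: percent viability relative to DMSO vehicle control taken as 100%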
Details: for pIC50: curve of first compound; for viability, T/C: stronger effect = lower value
Method in brief: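 Viability of tumor cells grown as complex spheroids with endothelial and stromal cells, exposed to drug combinations. Top concentration at or near clinical Cmax (else 10 microM), diluted in half-log increments.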

[1] = second compound 0.0316 µM, first compound 0.0316 µM
[2] = second compound 0.0316 µM, first compound 0.1 µM
[3] = second compound 0.0316 µM, first compound 0.316 µM
[4] = second compound 0.0316 µM, first compound 1 µM
[5] = second compound 0.0316 µM, first compound 3.16 µM
[6] = second compound 0.0316 µM, first compound 10 µM
[7] = second compound 0.1 µM, first compound 0.0316 µM
[8] = second compound 0.1 µM, first compound 0.1 µM
[9] = second compound 0.1 µM, first compound 0.316 µM
[10] = second compound 0.1 µM, first compound 1 µM
[11] = second compound 0.1 µM, first compound 3.16 µM
[12] = second compound 0.1 µM, first compound 10 µM
[13] = second compound 0.316 µM, first compound 0.0316 µM
[14] = second compound 0.316 µM, first compound 0.1 µM
[15] = second compound 0.316 µM, first compound 0.316 µM
[16] = second compound 0.316 µM, first compound 1 µM
[17] = second compound 0.316 µM, first compound 3.16 µM
[18] = second compound 0.316 µM, first compound 10 µM
[19] = second compound 1 µM, first compound 0.0316 µM
[20] = second compound 1 µM, first compound 0.1 µM
[21] = second compound 1 µM, first compound 0.316 µM
[22] = second compound 1 µM, first compound 1 µM
[23] = second compound 1 µM, first compound 3.16 µM
[24] = second compound 1 µM, first compound 10 µM
[25] = second compound 3.16 µM, first compound 0.0316 µM
[26] = second compound 3.16 µM, first compound 0.1 µM
[27] = second compound 3.16 µM, first compound 0.316 µM
[28] = second compound 3.16 µM, first compound 1 µM
[29] = second compound 3.16 µM, first compound 3.16 µM
[30] = second compound 3.16 µM, first compound 10 µM
[31] = second compound 10 µM, first compound 0.0316 µM
[32] = second compound 10 µM, first compound 0.1 µM
[33] = second compound 10 µM, first compound 0.316 µM
[34] = second compound 10 µM, first compound 1 µM
[35] = second compound 10 µM, first compound 3.16 µM
[36] = second compound 10 µM, first compound 10 µM

Compound: COc1ncnc(C2CC2)c1-c1ncc2cnn(Cc3ccc(-c4nc(C(F)(F)F)cn4C(C)C)cc3)c2n1 + CN(C)c1ccc(Nc2c3ccc(NC(=O)CCN4CCCC4)cc3nc3cc(NC(=O)CCN4CCCC4)ccc23)cc1
- pIC50 (second compound 0.0316 µM): < 5.00
- pIC50 (second compound 0.1 µM): < 5.00
- pIC50 (second compound 0.316 µM): < 5.00
- pIC50 (second compound 1 µM): < 5.00
- pIC50 (second compound 3.16 µM): < 5.00
- pIC50 (second compound 10 µM): 5.06
- viability, T/C [1]: 101%
- viability, T/C [2]: 91.8%
- viability, T/C [3]: 84.1%
- viability, T/C [4]: 97.1%
- viability, T/C [5]: 89.8%
- viability, T/C [6]: 98.6%
- viability, T/C [7]: 94.8%
- viability, T/C [8]: 83.2%
- viability, T/C [9]: 88.7%
- viability, T/C [10]: 80.2%
- viability, T/C [11]: 93.4%
- viability, T/C [12]: 90.5%
- viability, T/C [13]: 90.5%
- viability, T/C [14]: 90.5%
- viability, T/C [15]: 75.7%
- viability, T/C [16]: 74.1%
- viability, T/C [17]: 88%
- viability, T/C [18]: 89.1%
- viability, T/C [19]: 79%
- viability, T/C [20]: 88.3%
- viability, T/C [21]: 83.5%
- viability, T/C [22]: 67.9%
- viability, T/C [23]: 64.2%
- viability, T/C [24]: 75.5%
- viability, T/C [25]: 82.6%
- viability, T/C [26]: 77.8%
- viability, T/C [27]: 65.1%
- viability, T/C [28]: 74.1%
- viability, T/C [29]: 72.1%
- viability, T/C [30]: 66.9%
- viability, T/C [31]: 84.1%
- viability, T/C [32]: 69%
- viability, T/C [33]: 70.5%
- viability, T/C [34]: 71.8%
- viability, T/C [35]: 71.8%
- viability, T/C [36]: 46.9%

Compound: Cc1[nH]c2ccccc2c1CCNCc1ccc(/C=C/C(=O)NO)cc1 + CN(C)c1ccc(Nc2c3ccc(NC(=O)CCN4CCCC4)cc3nc3cc(NC(=O)CCN4CCCC4)ccc23)cc1
- pIC50 (second compound 0.0316 µM): 6.60
- pIC50 (second compound 0.1 µM): 6.63
- pIC50 (second compound 0.316 µM): 6.64
- pIC50 (second compound 1 µM): 6.69
- pIC50 (second compound 3.16 µM): 6.72
- pIC50 (second compound 10 µM): 6.88
- viability, T/C (second compound 0.0316 µM, first compound 0.000999 µM): 103%
- viability, T/C (second compound 0.0316 µM, first compound 0.00316 µM): 98%
- viability, T/C (second compound 0.0316 µM, first compound 0.00999 µM): 96.5%
- viability, T/C [1]: 102%
- viability, T/C (second compound 0.0316 µM, first compound 0.0999 µM): 85.4%
- viability, T/C [3]: 41.5%
- viability, T/C (second compound 0.1 µM, first compound 0.000999 µM): 97.8%
- viability, T/C (second compound 0.1 µM, first compound 0.00316 µM): 97.1%
- viability, T/C (second compound 0.1 µM, first compound 0.00999 µM): 96.6%
- viability, T/C [7]: 90.7%
- viability, T/C (second compound 0.1 µM, first compound 0.0999 µM): 87.6%
- viability, T/C [9]: 37.4%
- viability, T/C (second compound 0.316 µM, first compound 0.000999 µM): 91.2%
- viability, T/C (second compound 0.316 µM, first compound 0.00316 µM): 96.8%
- viability, T/C (second compound 0.316 µM, first compound 0.00999 µM): 88.8%
- viability, T/C [13]: 91.1%
- viability, T/C (second compound 0.316 µM, first compound 0.0999 µM): 89.8%
- viability, T/C [15]: 35.1%
- viability, T/C (second compound 1 µM, first compound 0.000999 µM): 90.9%
- viability, T/C (second compound 1 µM, first compound 0.00316 µM): 88.5%
- viability, T/C (second compound 1 µM, first compound 0.00999 µM): 84.3%
- viability, T/C [19]: 85.5%
- viability, T/C (second compound 1 µM, first compound 0.0999 µM): 81.7%
- viability, T/C [21]: 29.6%
- viability, T/C (second compound 3.16 µM, first compound 0.000999 µM): 81.6%
- viability, T/C (second compound 3.16 µM, first compound 0.00316 µM): 88.5%
- viability, T/C (second compound 3.16 µM, first compound 0.00999 µM): 86.5%
- viability, T/C [25]: 84.5%
- viability, T/C (second compound 3.16 µM, first compound 0.0999 µM): 72.5%
- viability, T/C [27]: 32.1%
- viability, T/C (second compound 10 µM, first compound 0.000999 µM): 90%
- viability, T/C (second compound 10 µM, first compound 0.00316 µM): 84.7%
- viability, T/C (second compound 10 µM, first compound 0.00999 µM): 82.6%
- viability, T/C [31]: 84.3%
- viability, T/C (second compound 10 µM, first compound 0.0999 µM): 58%
- viability, T/C [33]: 25.9%

Compound: O=C(NO)c1cnc(N2CCN(S(=O)(=O)c3ccc4ccccc4c3)CC2)nc1 + CN(C)c1ccc(Nc2c3ccc(NC(=O)CCN4CCCC4)cc3nc3cc(NC(=O)CCN4CCCC4)ccc23)cc1
- pIC50 (second compound 0.0316 µM): 6.49
- pIC50 (second compound 0.1 µM): 6.49
- pIC50 (second compound 0.316 µM): 6.49
- pIC50 (second compound 1 µM): 6.50
- pIC50 (second compound 3.16 µM): 6.47
- pIC50 (second compound 10 µM): 6.58
- viability, T/C [1]: 108%
- viability, T/C [2]: 89.4%
- viability, T/C [3]: 54.2%
- viability, T/C [4]: 0.96%
- viability, T/C [5]: 1.31%
- viability, T/C [6]: 3.07%
- viability, T/C [7]: 116%
- viability, T/C [8]: 98.7%
- viability, T/C [9]: 54%
- viability, T/C [10]: 0.82%
- viability, T/C [11]: 1.32%
- viability, T/C [12]: 2.31%
- viability, T/C [13]: 104%
- viability, T/C [14]: 98.1%
- viability, T/C [15]: 51%
- viability, T/C [16]: 0.47%
- viability, T/C [17]: 1.57%
- viability, T/C [18]: 1.8%
- viability, T/C [19]: 93%
- viability, T/C [20]: 96%
- viability, T/C [21]: 49.7%
- viability, T/C [22]: 0.55%
- viability, T/C [23]: 2.23%
- viability, T/C [24]: 1.4%
- viability, T/C [25]: 86.6%
- viability, T/C [26]: 90.9%
- viability, T/C [27]: 52.6%
- viability, T/C [28]: 0.33%
- viability, T/C [29]: 0.17%
- viability, T/C [30]: 1.59%
- viability, T/C [31]: 87.6%
- viability, T/C [32]: 70.2%
- viability, T/C [33]: 47.4%
- viability, T/C [34]: 0.97%
- viability, T/C [35]: 2.45%
- viability, T/C [36]: 1.01%
